Results: paper PMC6340402 (Chemical Science, 2018)

System: HeLa cells
Test: Cellular uptake in HeLa cells by confocal laser scanning microscopy
Type: cell-based
Conditions: 30 minutes, 37 °C, serum-containing medium, Fig. 3

- cellular uptake (CLSM, FITC fluorescence) (all concentrations (5, 10, 15 and 20 μM)): taken up at all concentrations
- mechanism of uptake at the higher concentrations (CLSM) (higher concentrations): strong cytosolic uptake
Substance: FITC-Ahx-Arg-Arg-Arg-Arg-tetrazine-BCN-Arg-Arg-Arg-Arg-NH2 [R4-b-R4]
